Key:
[1] = Temperature-controlled powder X-ray diffraction; type: physicochemical; settings: 2° C./min
Experimental: Powder X-ray diffraction was conducted under the measurement conditions similar to those in 4. (powder X-ray diffraction) of Test Examples 3. The temperature was increased according to the following conditions. • Temperature controller: PCT-20 (manufactured by Rigaku Denki K.K.) • Rate for the increase of the temperature: 2° C./min • Measurement temperatures: 30° C., 40° C., 60° C., 80° C., 120° C., 140° C., 180° C., 200° C., 205° C., 210° C. and 215° C. [Results]

[2] = Powder X-ray diffraction with a treatment of humidification; type: physicochemical; settings: room temperature
Experimental: Powder X-ray diffraction was measured under the measurement conditions similar to those in 4. (powder X-ray diffraction) of Test Example 3. Humidification was carried out using a humidity control unit HUM-1A (manufactured by Rigaku Denki K. K.)), to sequentially adjust relative humidity to 3%, 30%, 50%, 60%, 70%, 75%, 80% and 85% at room temperature.

[3] = Evaluation of hygroscopicity (storage 1 week; water content, powder X-ray diffraction); type: physicochemical; settings: for change in appearance and crystal transition / change of water content / hygroscopicity: 25° C., relative humidity 75% or 93%; for crystal form: powder X-ray diffraction
Experimental: The hygroscopicity and solid stability of a crystalline form of the mesylate of the carboxamide (Form A) (obtained in Example 5), a crystalline form of the mesylate of the carboxamide (Form C) (obtained in Example 7), a crystalline form of the acetic acid solvate of the mesylate of the carboxamide (Form I) (obtained in Example 10) and a crystalline form of the esylate of the carboxamide (Form β) (obtained in Example 12) were measured under the following conditions.
1. Storage Conditions for the Hygroscopicity Test (Period: 1 Week)
a-1. 25° C., relative humidity 75%
b-1. 25° C., relative humidity 93%
Analysis was carried out according to “X-Ray Powder Diffraction Method” described in Japanese Pharmacopoeia 14th Edition, General Tests (B-614 to 619) under the following measurement conditions. • Apparatus: RINT-2000 (manufacture by Rigaku Denki K. K.) • X-ray: CuKα ray • Monochrometer: curved crystal monochrometer • Goniometer: vertical goniometer • Counter: scintillation counter • Applied voltage: 40 kV • Charging current: 200 mA • Scan speed: 5°/min • Scan axis: 2θ/θ • Scan range; 2θ+5° to 40° • Divergent slit: 0.5° • Scattering slit: 0.5° • Receiving slit: 0.3 mm 5. Measurement of Water Content
Measurement was carried out according to the Water Determination as described in Japanese Pharmacopoeia 14th Edition, General Tests (B-318 to 331) using 6 to 10 mg of each crystal.

[4] = Test for measuring dissolution rate (rotating disk method); type: physicochemical; settings: 2nd fluid pH 6.8, 37° C., 50 rpm
Experimental: The dissolution rates of the following crystals were measured under the conditions described below by the rotating disk method (see, J. H. Woods et al., J. Pharm. Soc., 54, 1068 (1955)): a crystalline form of the free carboxamide (obtained in Preparation Example 1), a crystalline form of the hydrochloride of the carboxamide (obtained in Example 1), a crystalline form of the hydrobromide of the carboxamide (obtained in Example 2), a crystalline form of the methanesulfonate (hereunder, referred to as “mesylate”) of the carboxamide (Form A) (obtained in Example 5), a crystalline form of the mesylate of the carboxamide (Form C) (obtained in Example 7) and a crystalline form of the ethanesulfonate (hereunder, referred to as “esylate”) (Form β) (obtained in Example 12). The dissolution rates were calculated based on a range in which linearity was maintained in the relation between concentration and time at the initial stage of dissolution.
(Rotating Disk Method Conditions)
• Solvent: “2nd fluid” (pH 6.8, 500 mL) as described in Japanese Pharmacopoeia 14th Edition, General Tests (disintegration test) • Temperature: 37° C. • Disk rotation speed: 50 rpm • Area of powder contacting with solvent on disk: 1 cm^2 • Sampling amount: approx. 1 mL (HPLC Conditions) • Column: Cadenza CD-18 (Imtakt Corporation; inner diameter 4.6 mm, Column length 100 mm, particle size 3 μm) • Column temperature: 40° C. • Flow rate: 1.0 mL/min • Mobile phase:
Concentration of solution B: 20% • Injection amount: 100 μL • Detection: ultraviolet absorbance photometer (wavelength: 252 nm) • Temperature of auto sampler: 25° C. [Results]

[5] = Evaluation of solid stability (storage 2 weeks; total impurity by HPLC, water content, powder X-ray diffraction); type: physicochemical; settings: for changes in water content and appearance, crystal transition: all storage conditions
Experimental: 2. Storage Conditions for the Solid Stability Test (Period: 2 Weeks) a-2. −20° C. (well closed) b-2. 25° C., light irradiation (1000 1×; shading with aluminum foil, well closed) c-2. 25° C., light irradiation (1000 1×; well closed) […]
e-2. 60° C. (well closed except the following case: slightly open in the case of a crystalline form of the acetic acid solvate of the mesylate (Form I))
3. Method for Measuring the Impurity Amount by HPLC
After storage, the sample solution was prepared by adding a mixed solvent of water and methanol (3:1) to each crystal at 0.1 mg/mL as final concentration.
Tests were conducted by the HPLC method for these sample solutions under the measurement conditions described below, and the eluted peak areas were measured to determine the total impurity amount by the relative area method (impurities of 0.05% or more were counted).
(Formula for Calculating Total Impurity Amount)
• Individual impurity amount (%)=(the peak area for the individual impurity)×100/{(the peak area for carboxamide)+(sum of the peak areas for impurities)} • Total impurity amount (%)=sum of individual impurity amounts (HPLC Measurement Conditions) • Column: Mightysil RP-18 GP (Kanto Kagaku; inner diameter 4.6 mm, column length 150 mm, particle size 3 μm) • Column temperature: constant temperature in vicinity of 40° C. • Flow rate: 1.0 mL/min • Mobile phase:
Solution B: CH3CN:H2O:HClO4=900:100:1 (v/v/v) • Gradient conditions […]
• Injection amount: 10 μL • Detection: ultraviolet absorbance photometer (wavelength: 252 nm) • Temperature of auto sampler: constant temperature in vicinity of 10° C. 4. Powder X-ray Diffraction […]
Measurement of Water Content

[6] = Study of pharmacokinetics in beagle dogs; type: in vivo; settings: mean ± standard error; for BA: beagle dogs n=3, oral 3 mg/kg as free form vs single intravenous administration of free form; for AUC0-24hr / Maximum plasma concentration (Cmax) / plasma concentration after 24 hours (C24hr) / time to reach maximum plasma concentration (Tmax): beagle dogs n=3, oral, gelatin capsule, 3 mg/kg as free form, fasted
Experimental: A crystalline form of the free from of the carboxamide (obtained in Preparation Example 1), a crystalline form of the hydrobromide of the carboxamide (obtained in Example 2) and a crystalline form of the mesylate of the carboxamide (Form A) (obtained in Example 5) were grounded in a mortar, encapsulated in a gelatin capsule, and then administered orally to beagle dogs (n=3). After administration, 10 mL of water was further administered orally. The dose was set such that it was equivalent to 3 mg/kg as a free form, and the beagle dogs were fasted from the day before administration, and fed again 8 hours after the administration.
To calculate bioavailability (BA), a test was conducted using a single intravenous administration. More specifically, a crystalline form of the free from of the carboxamide was dissolved in a solution containing 10% dimethyl sulfoxide, 50% polyethylene glycol 400 and 40% 0.1 M aqueous solution of hydrochloric acid and administered intravenously through cephalic vein of the foreleg.
The plasma concentration of the carboxamide was measured by HPLC-UV method after sampling blood from cephalic vein of the foreleg. Based on the concentration, pharmacokinetic parameters were calculated for each individual by the moment method. Further, based on the calculated parameters, the mean value and standard error thereof were calculated.

[7] = a-1: 25° C., relative humidity 75%, 1 week
[8] = b-1: 25° C., relative humidity 93%, 1 week
[9] = a-2: −20° C. (well closed), 2 weeks
[10] = b-2: 25° C., light irradiation 1000 lx, shading with aluminum foil, well closed, 2 weeks
[11] = c-2: 25° C., light irradiation 1000 lx, well closed, 2 weeks
[12] = d-2: 40° C., relative humidity 75%, 2 weeks
[13] = e-2: 60° C., 2 weeks (well closed; slightly open for Form I)
[14] = solid stability test, initial, HPLC relative area

change of water content ([3]; 1 week)	hygroscopicity ([3]; 1 week)	water content [3, 7]	water content [3, 8]	water content ([3]; hygroscopicity test, initial)	dissolution rate [4]	total impurity [5, 9]	water content [5, 9]	total impurity [5, 10]	water content [5, 10]	total impurity [5, 11]	water content [5, 11]	total impurity [5, 12]	water content [5, 12]	total impurity [5, 13]	water content [5, 13]	water content ([5]; solid stability test, initial)	total impurity [5, 14]	Compound	change in appearance and crystal transition ([3]; 1 week)	changes in water content and appearance, crystal transition ([5]; solid stability test, 2 weeks)	other results
																		COc1cc2nccc(Oc3ccc(NC(=O)NC4CC4)c(Cl)c3)c2cc1C(N)=O.CS(=O)(=O)O.C[S+](C)[O-] [Dimethyl Sulfoxide Solvate of Methanesulfonate of 4-(3-chloro-4-(cyclopropylaminocarbonyl)aminophenoxy)-7-methoxy-6-quinolinecarboxamide]			crystal transition on heating ([1]; temperatures from 30° C. to 80° C.): crystal transition was not observed; crystal transition on heating ([1]; temperatures of 120° C. or more): transition to a crystalline form of the mesylate (Form C) was observed
																		COc1cc2nccc(Oc3ccc(NC(=O)NC4CC4)c(Cl)c3)c2cc1C(N)=O.CS(=O)(=O)O [mesylate (Form B), Methanesulfonate of 4-(3-chloro-4-(cyclopropylaminocarbonyl)aminophenoxy)-7-methoxy-6-quinolinecarboxamide]			crystal transition on humidification ([2]; relative humidity from 3% to 70%): did not exhibit a crystal transition; crystal transition on humidification ([2]; relative humidity of 75% and 80%): mixture of crystalline forms of the mesylate (Form B) and (Form C); crystal transition on humidification ([2]; relative humidity of 85%): complete transition to a crystalline form of the mesylate (Form C)
did not change remarkably	not observed	1.7%	1.4%	1.7%	18.5 μg/min/cm^2	0.48%	2.0%	0.46%	2.5%	0.49%	2.1%	0.48%	2.0%	0.51%	2.2%	1.7%	0.55%	CCS(=O)(=O)O.COc1cc2nccc(Oc3ccc(NC(=O)NC4CC4)c(Cl)c3)c2cc1C(N)=O [esylate (Form β), Ethanesulfonate of 4-(3-chloro-4-(cyclopropylaminocarbonyl)aminophenoxy)-7-methoxy-6-quinolinecarboxamide]	Neither remarkable change in appearance nor crystal transition was observed	neither remarkable changes in water content and appearance nor crystal transition was observed	crystal form [3, 7]: β; crystal form [3, 8]: β; crystal form ([3]; hygroscopicity test, initial): β; crystal form [5, 9]: β; crystal form [5, 10]: β; crystal form [5, 11]: β; crystal form [5, 12]: β; crystal form [5, 13]: β; crystal form ([5]; solid stability test, initial, powder X-ray diffraction): β
did not change remarkably	not observed	0.6%	0.7%	0.7%	11.8 μg/min/cm^2	3.90%	0.0%	3.95%	0.0%	4.23%	0.1%	3.90%	0.2%	3.97%	0.2%	0.3%	4.02%	COc1cc2nccc(Oc3ccc(NC(=O)NC4CC4)c(Cl)c3)c2cc1C(N)=O.CS(=O)(=O)O [mesylate (Form A), Methanesulfonate of 4-(3-chloro-4-(cyclopropylaminocarbonyl)aminophenoxy)-7-methoxy-6-quinolinecarboxamide]	Neither remarkable change in appearance nor crystal transition was observed	neither remarkable changes in water content and appearance nor crystal transition was observed	BA [6]: 46.2 ± 5.9%; AUC0-24hr [6]: 3000 ± 400 ng·h/mL; Maximum plasma concentration (Cmax) [6]: 397.1 ± 100.1 ng/mL; plasma concentration after 24 hours (C24hr) [6]: 17.1 ± 2.5 ng/mL; time to reach maximum plasma concentration (Tmax) [6]: 1.67 ± 0.3 h
					8.7 μg/min/cm^2													Br.COc1cc2nccc(Oc3ccc(NC(=O)NC4CC4)c(Cl)c3)c2cc1C(N)=O [hydrobromide, Hydrobromide of 4-(3-chloro-4-(cyclopropylaminocarbonyl)aminophenoxy)-7-methoxy-6-quinolinecarboxamide]			BA [6]: 73.5 ± 2.3%; AUC0-24hr [6]: 4800 ± 200 ng·h/mL; Maximum plasma concentration (Cmax) [6]: 480.4 ± 31.4 ng/mL; plasma concentration after 24 hours (C24hr) [6]: 100.5 ± 81.7 ng/mL; time to reach maximum plasma concentration (Tmax) [6]: 2.67 ± 0.7 h
